Values after ≈ are worked out from the molar mass of the structure shown. Active and inactive are the calls of the source. The rule behind the calls is not given here.
What was measured:
[1] = Half-life of the compound in human Plasma; format: ADME, cell-free
[2] = Toxicity against male Sprague-Dawley rat assessed as effect on glucose level in blood at 10 to 40 mg/kg, po administered once daily via gavage for 28 days and measured on day 29; format: organism-based; settings: in vivo, 696 h, dose 10-40 mg/kg, time 29 day
[3] = GSH reactivity assessed as half life to adduct formation at 1 uM by LC-MS/MS analysis; format: physicochemical
Caco-2 = test: Antiproliferative activity against human Caco-2 cells assessed as reduction in cell viability incubated for 7 days by CellTiter-Glo reagent based luminescence analysis; format: functional; settings: Caco-2, 168 h
HCC1395 = test: Antiproliferative activity against human HCC1395 cells assessed as reduction in cell viability incubated for 7 days by CellTiter-Glo reagent based luminescence analysis; format: functional; settings: HCC1395, 168 h
[4] = Toxicity against female Sprague-Dawley rat assessed as effect on AST level in blood at 7.5 to 30 mg/kg, po administered once daily via gavage for 28 days and measured on day 29; format: organism-based; settings: in vivo, 696 h, dose 7.5-30 mg/kg, time 29 day
[5] = Toxicity against female Sprague-Dawley rat assessed as effect on mean corpuscular hemoglobin at 7.5 to 30 mg/kg, po administered once daily via gavage for 28 days and measured on day 29; format: organism-based; settings: in vivo, 696 h, dose 7.5-30 mg/kg, time 29 day
[6] = Toxicity against female Sprague-Dawley rat assessed as effect on hematocrit level at 7.5 to 30 mg/kg, po administered once daily via gavage for 28 days and measured on day 29; format: organism-based; settings: in vivo, 696 h, dose 7.5-30 mg/kg, time 29 day
[7] = target: CDK12/Cyclin K (Homo sapiens) (UniProt O75909+Q9NYV4); test: Inhibition of N-terminal GST-tagged human recombinant CDK12/N-terminal FLAG and C-terminal 6X His-tagged Cyclin K expressed in HEP Sf9 cells using ATP as substrate at 2 uM measured after 60 mins by ADP-Glo reagent based luminescence assay
[8] = Toxicity against female Sprague-Dawley rat assessed as decrease in lymphocytes content at 7.5 to 30 mg/kg, po administered once daily via gavage for 28 days and measured on day 29; format: organism-based; settings: in vivo, 696 h, dose 7.5-30 mg/kg, time 29 day
[9] = AUC(0 to t) in male Sprague-Dawley rat at 40 mg/kg, po administered via gavage and measured on day 1; format: ADME, organism-based; settings: in vivo, 24 h, time 1 day
[10] = Toxicity against female Sprague-Dawley rat assessed as increase in neutrophils content at 7.5 to 30 mg/kg, po administered once daily via gavage for 28 days and measured on day 29; format: organism-based; settings: in vivo, 696 h, dose 7.5-30 mg/kg, time 29 day
Mus musculus [11] = test: In vivo inhibition of CDK12/13 in Balb/c mouse xenografted with human SUM149PT cells assessed as reduction in FANCI gene expression at 15 to 30 mg/kg, po administered once daily via gavage and measured at 4 hrs post-last drug dosage by qPCR analysis; format: functional, organism-based; settings: dose 15-30 mg/kg
[12] = AUC in Balb/c mouse xenografted with human SUM149PT cells at 30 mg/kg, po administered once daily via gavage; format: ADME, organism-based; settings: in vivo
[13] = Half-life in Balb/c mouse xenografted with human MV4-11 cells at 30 mg/kg, po administered once daily via gavage; format: ADME, organism-based; settings: in vivo
[14] = Toxicity against male Sprague-Dawley rat assessed as decrease in lymphocytes content at 10 to 40 mg/kg, po administered once daily via gavage for 28 days and measured on day 29; format: organism-based; settings: in vivo, 696 h, dose 10-40 mg/kg, time 29 day
SUM149PT = test: Antiproliferative activity against human SUM149PT cells assessed as inhibition of cell growth incubated for 7 days by CellTiter-Glo reagent based luminescence analysis; format: functional; settings: 168 h
[15] = target: Cyclin-dependent kinase 2/cyclin E1 (Homo sapiens) (UniProt P24864+P24941); test: Inhibition of human recombinant N-terminal GST-tagged CDK2/N-terminal GST-tagged Cyclin E1 expressed in HEP Sf9 cells using ATP as substrate at 2 uM measured after 60 mins by ADP-Glo reagent based luminescence analysis
MV4-11 = test: Antitumor activity against human MV4-11 cells xenografted in Balb/c nude mouse assessed as inhibition of tumor growth at 30 mg/kg, po administered once daily via gavage and measured on day 21; format: functional; settings: MV4-11, 504 h, time 21 day, read-out: TGI
[16] = Oral bioavailability in Sprague-Dawley rat at 5 mg/kg measured for 24 hrs by LC-MS/MS analysis; format: ADME, organism-based; settings: in vivo
[17] = Toxicity against male Sprague-Dawley rat assessed as effect on chlorine level in blood at 10 to 40 mg/kg, po administered once daily via gavage for 28 days and measured on day 29; format: organism-based; settings: in vivo, 696 h, dose 10-40 mg/kg, time 29 day
[18] = Toxicity against male Sprague-Dawley rat assessed as increase in neutrophils content at 10 to 40 mg/kg, po administered once daily via gavage for 28 days and measured on day 29; format: organism-based; settings: in vivo, 696 h, dose 10-40 mg/kg, time 29 day
[19] = Kinetic solubility of the compound in phosphate buffer at pH 7.4 measured after 24 hrs by HPLC-UV analysis; format: physicochemical; settings: read-out: Kinetic_solubility
OCI-AML-3 = test: Antiproliferative activity against human OCI-AML-3 cells assessed as reduction in cell viability incubated for 7 days by CellTiter-Glo reagent based luminescence analysis; format: functional; settings: OCI-AML-3, 168 h
[20] = Toxicity against female Sprague-Dawley rat assessed as effect on mean corpuscular volume at 7.5 to 30 mg/kg, po administered once daily via gavage for 28 days and measured on day 29; format: organism-based; settings: in vivo, 696 h, dose 7.5-30 mg/kg, time 29 day
[21] = AUC(0 to t) in male Sprague-Dawley rat at 20 mg/kg, po administered once daily via gavage for 28 days; format: ADME, organism-based; settings: in vivo, 672 h, time 28 day
Mus musculus [22] = test: In vivo inhibition of CDK12/13 in Balb/c mouse xenografted with human SUM149PT cells assessed as reduction in BRCA1 gene expression at 15 to 30 mg/kg, po administered once daily via gavage and measured at 4 hrs post-last drug dosage by qPCR analysis; format: functional, organism-based; settings: dose 15-30 mg/kg
[23] = Cmax in female Sprague-Dawley rat at 15 mg/kg, po administered once daily via gavage for 28 days; format: ADME, organism-based; settings: in vivo, time 28 day
[24] = Half life in female Sprague-Dawley rat at 30 mg/kg, po administered once daily via gavage for 28 days; format: ADME, organism-based; settings: in vivo, time 28 day
KARPAS-299 = test: Antiproliferative activity against human KARPAS-299 cells assessed as reduction in cell viability incubated for 7 days by CellTiter-Glo reagent based luminescence analysis; format: functional; settings: KARPAS-299, 168 h
[25] = target: T1, Cyclin-dependent kinase 12/13 (Homo sapiens) (UniProt Q14004+Q9NYV4); test: Covalent inhibition of CDK12/13 in human SUM149PT cells assessed as reduction in level of phosphorylation of Ser2 on RNA Pol II CTD at 500 nM incubated for 12 hrs followed by drug wash-out and measured after 72 hrs by western blot analysis; format: cell-based
[26] = target: T1, Cyclin-dependent kinase 12/13 (Homo sapiens); test: Inhibition of CDK12/13 in human SUM149PT cells assessed as reduction in FANCI gene expression at 500 nM incubated for 8 to 24 hrs by qPCR analysis; format: cell-based; settings: time lower 8.0 hrs, time upper […]
[27] = Half-life in Balb/c mouse xenografted with human MV4-11 cells at 15 mg/kg, po administered once daily via gavage; format: ADME, organism-based; settings: in vivo

Sequence of CDK12/Cyclin K (Homo sapiens) (O75909 whole entry, looked up): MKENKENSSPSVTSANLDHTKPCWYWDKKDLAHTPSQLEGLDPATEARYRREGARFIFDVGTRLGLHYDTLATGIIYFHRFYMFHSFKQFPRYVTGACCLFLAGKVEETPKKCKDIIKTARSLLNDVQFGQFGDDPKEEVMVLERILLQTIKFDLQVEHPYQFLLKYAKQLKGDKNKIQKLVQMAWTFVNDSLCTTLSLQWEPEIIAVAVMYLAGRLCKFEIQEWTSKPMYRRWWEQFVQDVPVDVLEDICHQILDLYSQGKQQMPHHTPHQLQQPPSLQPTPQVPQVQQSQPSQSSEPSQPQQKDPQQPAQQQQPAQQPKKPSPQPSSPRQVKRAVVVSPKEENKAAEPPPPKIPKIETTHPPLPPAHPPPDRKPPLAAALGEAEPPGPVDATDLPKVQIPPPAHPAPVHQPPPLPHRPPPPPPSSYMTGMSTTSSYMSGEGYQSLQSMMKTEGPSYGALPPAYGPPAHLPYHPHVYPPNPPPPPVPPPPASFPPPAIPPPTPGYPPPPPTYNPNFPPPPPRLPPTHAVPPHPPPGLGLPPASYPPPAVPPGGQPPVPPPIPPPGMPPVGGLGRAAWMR
Sequence of CDK12/Cyclin K (Homo sapiens) (Q9NYV4 whole entry, looked up): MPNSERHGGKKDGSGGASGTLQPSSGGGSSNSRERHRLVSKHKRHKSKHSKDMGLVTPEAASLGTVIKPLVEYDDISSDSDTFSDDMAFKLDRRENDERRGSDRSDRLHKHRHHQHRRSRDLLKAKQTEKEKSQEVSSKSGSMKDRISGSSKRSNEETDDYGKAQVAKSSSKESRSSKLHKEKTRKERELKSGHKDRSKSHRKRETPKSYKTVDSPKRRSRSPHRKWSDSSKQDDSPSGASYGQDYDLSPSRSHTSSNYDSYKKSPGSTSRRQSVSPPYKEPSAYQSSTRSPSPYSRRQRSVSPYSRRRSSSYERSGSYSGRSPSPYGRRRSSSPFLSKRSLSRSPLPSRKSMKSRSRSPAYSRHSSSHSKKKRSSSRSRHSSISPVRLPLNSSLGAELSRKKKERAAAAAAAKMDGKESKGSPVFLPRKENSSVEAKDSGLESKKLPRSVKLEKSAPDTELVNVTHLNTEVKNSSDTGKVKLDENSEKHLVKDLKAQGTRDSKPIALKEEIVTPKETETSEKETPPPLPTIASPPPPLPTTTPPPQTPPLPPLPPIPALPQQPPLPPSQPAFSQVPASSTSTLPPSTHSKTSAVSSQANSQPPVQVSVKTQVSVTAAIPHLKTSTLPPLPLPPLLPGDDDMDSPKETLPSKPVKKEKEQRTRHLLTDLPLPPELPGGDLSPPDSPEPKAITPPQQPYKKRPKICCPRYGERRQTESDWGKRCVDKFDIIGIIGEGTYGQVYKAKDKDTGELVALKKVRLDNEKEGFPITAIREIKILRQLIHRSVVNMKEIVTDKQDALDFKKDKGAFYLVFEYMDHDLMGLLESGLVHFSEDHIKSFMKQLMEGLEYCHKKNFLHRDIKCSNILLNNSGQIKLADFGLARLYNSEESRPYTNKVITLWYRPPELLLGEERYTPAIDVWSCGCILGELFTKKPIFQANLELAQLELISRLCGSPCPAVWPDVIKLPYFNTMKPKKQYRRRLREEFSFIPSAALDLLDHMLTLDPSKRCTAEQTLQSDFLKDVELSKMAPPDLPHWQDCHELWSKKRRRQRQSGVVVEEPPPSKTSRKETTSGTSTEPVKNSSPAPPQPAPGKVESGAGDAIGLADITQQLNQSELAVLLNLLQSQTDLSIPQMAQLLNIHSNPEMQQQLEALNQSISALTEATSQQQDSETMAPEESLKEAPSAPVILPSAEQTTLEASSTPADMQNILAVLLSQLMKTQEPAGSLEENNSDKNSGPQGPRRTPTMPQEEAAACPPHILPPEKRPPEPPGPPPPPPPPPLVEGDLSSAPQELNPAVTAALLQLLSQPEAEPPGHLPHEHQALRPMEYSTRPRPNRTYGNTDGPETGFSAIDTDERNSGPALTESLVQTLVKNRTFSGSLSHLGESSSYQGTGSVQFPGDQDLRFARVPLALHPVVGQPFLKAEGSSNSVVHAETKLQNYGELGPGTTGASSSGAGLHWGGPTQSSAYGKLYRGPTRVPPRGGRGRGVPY

half-life [1]: > 4.82 h
t1/2 [3]: 1.35 h
IC50 (Caco-2): 122 nM
IC50 (HCC1395): 69 nM
inhibition [7]: 97%
AUCt [9]: 7120 ng·h/mL
AUC [12]: 2690 ng·h/mL
half-life [13]: 1.17 h
inhibition [15]: 63%
bioavailability [16]: 35.7%
solubility kinetic at 24 h [19]: 59.4 µg/mL (≈ 143 µM)
IC50 (OCI-AML-3): 137 nM
AUCt [21]: 2870 ng·h/mL
Cmax [23]: 1800 ng/mL
half-life [24]: 4.5 h
IC50 (KARPAS-299): 131 nM
inhibition [25]: Active
inhibition [26]: Active
half-life [27]: 4.09 h
SMILES: C=CC(=O)N1CCc2c(ncnc2N2CC[C@@H](Nc3ncc(Cl)c(OC)n3)C2)C1
Activity [2]: Non-toxic
Activity [4]: Non-toxic
Activity [5]: Non-toxic
Activity [6]: Non-toxic
Activity [8]: Toxic
Activity [10]: Toxic
inhibition (Mus musculus [11]): Active
Activity [14]: Toxic
IC50 (SUM149PT): 160 nM
inhibition in vivo at 30 mg/kg (MV4-11): 95%
Activity [17]: Non-toxic
Activity [18]: Toxic
Activity [20]: Non-toxic
inhibition (Mus musculus [22]): Active

From ChEMBL document CHEMBL6153137, “Design, Synthesis, and Biological Evaluation of Novel Orally Available Covalent CDK12/13 Dual Inhibitors for the Treatment of Tumors” (J Med Chem, 2025)
